Source: ChEMBL document CHEMBL4308877, “Thiazole, thio and semicarbazone derivatives against tropical infective diseases: Chagas disease, human African trypanosomiasis (HAT), leishmaniasis, and malaria” (Eur J Med Chem, 2019)

Tests used:
[1] = tested on: Trypanosoma brucei brucei; experiment: Anti-parasitic activity against Trypanosoma brucei brucei AnTat1.1E; assay type: functional, organism-based
[2] = tested on: Trypanosoma brucei rhodesiense; experiment: Anti-parasitic activity against Trypanosoma brucei rhodesiense STIB 851; assay type: functional, organism-based
[3] = Selectivity index, ratio of IC50 for HEK293T cells to IC50 for Trypanosoma brucei gambiense MBA; assay type: toxicity; settings: human
[4] = Selectivity index, ratio of IC50 for HEK293T cells to IC50 for Trypanosoma brucei rhodesiense STIB 851; assay type: toxicity; settings: human
[5] = Selectivity index, ratio of IC50 for HEK293T cells to IC50 for Trypanosoma brucei brucei AnTat1.1E; assay type: toxicity; settings: human
[6] = tested on: Trypanosoma brucei gambiense; experiment: Anti-parasitic activity against Trypanosoma brucei gambiense MBA; assay type: functional, organism-based
[7] = Selectivity index, ratio of cytotoxic activity for macrophages (unknown origin) to IC50 for amastigote stage of Leishmania infantum MHOM/BR/BH 46; assay type: toxicity; settings: read-out: Ratio CC50/IC50
Leishmania infantum [8] = experiment: Anti-parasitic activity against amastigote stage of Leishmania infantum MHOM/BR/BH 46 infected in macrophages after 24 hrs by Giemsa staining based method; assay type: functional, organism-based; settings: MHOM/BR/BH 46, 24 h
[9] = Selectivity index, ratio of CC50 for mouse J774 cells to IC50 for promastigote stage of Leishmania infantum MHOM/BR/BH 46; assay type: toxicity; settings: read-out: Ratio CC50/IC50
Leishmania infantum [10] = experiment: Anti-parasitic activity against promastigote stage of Leishmania infantum MHOM/BR/BH 46 after 72 hrs by Neubauer chamber method; assay type: functional, organism-based; settings: MHOM/BR/BH 46, 72 h
Trypanosoma brucei [11] = experiment: Anti-parasitic activity against type 1 nitroreductase over-expressing Trypanosoma brucei; assay type: functional, organism-based
[12] = Selectivity index, ratio of IC50 for human SK-N-SH cells to IC50 for wild type Trypanosoma brucei; assay type: toxicity; settings: read-out: Ratio IC50
[13] = Selectivity index, ratio of IC50 for human THP1 cells to IC50 for Trypanosoma brucei overexpressing the type 1 nitroreductase; assay type: toxicity; settings: read-out: Ratio IC50
Trypanosoma brucei [14] = experiment: Anti-parasitic activity against wild type Trypanosoma brucei; assay type: functional, organism-based
[15] = molecular target: Cruzipain (Trypanosoma cruzi) (UniProt P25779); experiment: Inhibition of recombinant Trypanosoma cruzi CL epimastigotes form cruzain at 100 uM using Z-FR-AMC as substrate preincubated for 10 mins followed by substrate addition measured after 5 mins by fluorimetric analysis relative to control
MDA-MB-231 = experiment: Cytotoxicity against human MDA-MB-231 cells assessed as reduction in cell viability after 72 hrs by MTT assay; assay type: functional, cell-based; settings: MDA-MB-231, 72 h
A549 = experiment: Cytotoxicity against human A549 cells assessed as reduction in cell viability after 72 hrs by MTT assay; assay type: functional, cell-based; settings: A549, 72 h
MKN-45 = experiment: Cytotoxicity against human MKN45 cells assessed as reduction in cell viability after 72 hrs by MTT assay; assay type: functional, cell-based; settings: MKN-45, 72 h
HT-29 = experiment: Cytotoxicity against human HT-29 cells assessed as reduction in cell viability after 72 hrs by MTT assay; assay type: functional, cell-based; settings: HT-29, 72 h
[16] = Selectivity index, ratio of LC50 for salina eggs to IC50 for Trypanosoma brucei brucei 427; assay type: toxicity; settings: Artemia salina (brine shrimp), read-out: Ratio IC50
[17] = tested on: Trypanosoma brucei brucei; experiment: Anti-parasitic activity against Trypanosoma brucei brucei 427 after 72 hrs by Alamar Blue assay; assay type: functional, organism-based; settings: Trypanosoma brucei, 427, 72 h
[18] = molecular target: RAF proto-oncogene serine/threonine-protein kinase (Homo sapiens) (UniProt P04049); experiment: Inhibition of c-Raf (unknown origin) at 10 uM using peptide as substrate preincubated for 1 hr followed by substrate addition measured after 20 mins by HTRF assay relative to control
[19] = molecular target: Vascular endothelial growth factor receptor 2 (Homo sapiens) (UniProt P35968); experiment: Inhibition of recombinant GST-tagged human KDR (789 to end residues) expressed in baculovirus infected Sf9 cells at 10 uM using peptide as substrate preincubated for 1 hr followed by substrate addition measured after 20 mins by HTRF assay relative to control
NCI-H460 = experiment: Cytotoxicity against human H460 cells assessed as reduction in cell viability after 72 hrs by MTT assay; assay type: functional, cell-based; settings: NCI-H460, 72 h
WI-38 = experiment: Cytotoxicity against human WI38 cells assessed as reduction in cell viability after 72 hrs by MTT assay; assay type: cell-based; settings: WI-38, 72 h
[20] = molecular target: Hepatocyte growth factor receptor (Homo sapiens) (UniProt P08581); experiment: Inhibition of recombinant N-terminal His6-tagged human c-MET (974 to end residues) expressed in baculovirus infected Sf21 cells at 10 uM using peptide as substrate preincubated for 1 hr followed by substrate addition measured after 20 mins by HTRF assay relative to control
[21] = molecular target: Platelet-derived growth factor receptor alpha (Homo sapiens) (UniProt P16234); experiment: Inhibition of recombinant GST-tagged human PDGFRalpha (550 to 1089 residues) cytoplasmic domain expressed in baculovirus expression system at 10 uM using peptide as substrate preincubated for 1 hr followed by substrate addition measured after 20 mins by HTRF assay relative to control
Trypanosoma cruzi [22] = experiment: Anti-parasitic activity against epimastigote stage of Trypanosoma cruzi Tulahuen 2 measured at day 5; assay type: functional, organism-based; settings: Tulahuen 2, 120 h
Trypanosoma cruzi [23] = experiment: Anti-parasitic activity against amastigote stage of Trypanosoma cruzi Sylvio X-10 infected in African green monkey Vero cells after 72 hrs by Giemsa-staining based assay; assay type: functional, organism-based; settings: Sylvio X-10, Vero

Hepatocyte growth factor receptor (Homo sapiens), sequence (P08581 whole entry, the tested form may be a part): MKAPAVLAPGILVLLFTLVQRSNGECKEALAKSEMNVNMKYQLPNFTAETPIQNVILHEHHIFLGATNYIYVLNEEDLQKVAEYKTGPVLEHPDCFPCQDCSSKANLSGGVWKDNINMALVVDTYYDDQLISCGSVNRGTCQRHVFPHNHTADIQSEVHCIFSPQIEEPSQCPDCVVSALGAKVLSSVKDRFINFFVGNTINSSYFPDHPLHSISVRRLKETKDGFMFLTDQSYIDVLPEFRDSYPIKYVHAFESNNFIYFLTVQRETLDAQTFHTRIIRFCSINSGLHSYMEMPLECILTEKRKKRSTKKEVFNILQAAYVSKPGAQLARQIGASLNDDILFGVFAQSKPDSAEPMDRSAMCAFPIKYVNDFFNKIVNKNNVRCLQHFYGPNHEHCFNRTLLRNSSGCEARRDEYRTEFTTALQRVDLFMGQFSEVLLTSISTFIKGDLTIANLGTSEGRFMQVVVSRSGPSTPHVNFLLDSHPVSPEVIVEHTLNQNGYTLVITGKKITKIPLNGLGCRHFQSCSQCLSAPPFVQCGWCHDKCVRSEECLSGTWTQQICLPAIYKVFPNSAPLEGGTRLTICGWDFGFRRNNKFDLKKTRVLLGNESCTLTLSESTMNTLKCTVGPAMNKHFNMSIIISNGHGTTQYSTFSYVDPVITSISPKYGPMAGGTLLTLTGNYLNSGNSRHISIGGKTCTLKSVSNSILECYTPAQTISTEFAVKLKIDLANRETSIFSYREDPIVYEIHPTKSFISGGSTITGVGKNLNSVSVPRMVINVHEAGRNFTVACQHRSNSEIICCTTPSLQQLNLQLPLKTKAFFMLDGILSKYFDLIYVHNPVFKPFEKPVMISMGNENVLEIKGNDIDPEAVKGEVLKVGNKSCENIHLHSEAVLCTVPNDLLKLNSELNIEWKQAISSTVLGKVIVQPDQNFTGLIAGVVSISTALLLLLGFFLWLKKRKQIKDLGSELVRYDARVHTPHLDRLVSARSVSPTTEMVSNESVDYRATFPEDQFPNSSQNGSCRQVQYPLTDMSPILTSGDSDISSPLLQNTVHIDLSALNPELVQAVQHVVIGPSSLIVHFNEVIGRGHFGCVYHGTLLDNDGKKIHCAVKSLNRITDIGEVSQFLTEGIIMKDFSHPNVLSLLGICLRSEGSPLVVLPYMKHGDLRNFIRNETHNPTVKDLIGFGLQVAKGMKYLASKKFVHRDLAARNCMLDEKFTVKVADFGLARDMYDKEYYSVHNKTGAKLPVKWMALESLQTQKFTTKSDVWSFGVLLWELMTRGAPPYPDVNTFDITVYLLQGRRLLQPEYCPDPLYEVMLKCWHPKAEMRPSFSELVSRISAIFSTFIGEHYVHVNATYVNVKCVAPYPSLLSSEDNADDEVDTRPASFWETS
Platelet-derived growth factor receptor alpha (Homo sapiens), sequence (P16234 whole entry, the tested form may be a part): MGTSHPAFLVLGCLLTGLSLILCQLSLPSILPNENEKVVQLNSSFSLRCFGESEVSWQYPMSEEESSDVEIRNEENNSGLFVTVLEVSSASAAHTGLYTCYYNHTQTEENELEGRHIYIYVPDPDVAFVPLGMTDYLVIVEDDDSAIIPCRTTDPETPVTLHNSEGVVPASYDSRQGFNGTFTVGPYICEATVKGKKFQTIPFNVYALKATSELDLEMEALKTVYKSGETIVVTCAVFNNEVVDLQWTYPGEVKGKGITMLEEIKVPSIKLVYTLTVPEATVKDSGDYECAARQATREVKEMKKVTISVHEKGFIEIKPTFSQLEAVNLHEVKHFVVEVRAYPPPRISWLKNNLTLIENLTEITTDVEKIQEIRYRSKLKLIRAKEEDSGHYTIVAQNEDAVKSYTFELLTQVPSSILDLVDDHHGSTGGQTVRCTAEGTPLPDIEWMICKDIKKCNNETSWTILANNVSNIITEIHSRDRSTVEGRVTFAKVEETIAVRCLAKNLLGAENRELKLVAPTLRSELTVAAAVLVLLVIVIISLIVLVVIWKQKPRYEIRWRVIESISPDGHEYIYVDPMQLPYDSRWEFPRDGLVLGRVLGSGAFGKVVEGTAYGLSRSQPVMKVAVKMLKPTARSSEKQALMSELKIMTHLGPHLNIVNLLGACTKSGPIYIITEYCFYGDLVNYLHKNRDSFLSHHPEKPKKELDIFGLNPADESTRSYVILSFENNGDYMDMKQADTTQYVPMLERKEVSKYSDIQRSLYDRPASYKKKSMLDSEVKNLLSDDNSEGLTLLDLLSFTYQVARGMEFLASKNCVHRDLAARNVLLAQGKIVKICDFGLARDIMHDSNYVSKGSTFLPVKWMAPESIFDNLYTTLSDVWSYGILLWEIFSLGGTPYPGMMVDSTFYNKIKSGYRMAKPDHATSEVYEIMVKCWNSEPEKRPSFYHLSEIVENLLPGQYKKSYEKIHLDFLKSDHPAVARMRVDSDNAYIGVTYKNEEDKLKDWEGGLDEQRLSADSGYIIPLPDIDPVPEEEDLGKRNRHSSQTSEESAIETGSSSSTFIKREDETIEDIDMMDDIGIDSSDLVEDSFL
Cruzipain (Trypanosoma cruzi), sequence (P25779 123-467 limits assumed): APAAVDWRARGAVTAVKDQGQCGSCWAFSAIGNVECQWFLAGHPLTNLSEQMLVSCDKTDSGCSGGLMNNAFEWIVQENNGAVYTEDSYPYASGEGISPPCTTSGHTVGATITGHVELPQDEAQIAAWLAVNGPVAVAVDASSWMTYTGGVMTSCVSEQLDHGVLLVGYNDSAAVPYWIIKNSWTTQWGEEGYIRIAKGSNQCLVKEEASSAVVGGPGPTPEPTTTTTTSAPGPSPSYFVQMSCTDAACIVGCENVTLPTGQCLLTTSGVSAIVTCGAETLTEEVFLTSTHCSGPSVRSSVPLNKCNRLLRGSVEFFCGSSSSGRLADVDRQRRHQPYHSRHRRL
Vascular endothelial growth factor receptor 2 (Homo sapiens), sequence (P35968 whole entry): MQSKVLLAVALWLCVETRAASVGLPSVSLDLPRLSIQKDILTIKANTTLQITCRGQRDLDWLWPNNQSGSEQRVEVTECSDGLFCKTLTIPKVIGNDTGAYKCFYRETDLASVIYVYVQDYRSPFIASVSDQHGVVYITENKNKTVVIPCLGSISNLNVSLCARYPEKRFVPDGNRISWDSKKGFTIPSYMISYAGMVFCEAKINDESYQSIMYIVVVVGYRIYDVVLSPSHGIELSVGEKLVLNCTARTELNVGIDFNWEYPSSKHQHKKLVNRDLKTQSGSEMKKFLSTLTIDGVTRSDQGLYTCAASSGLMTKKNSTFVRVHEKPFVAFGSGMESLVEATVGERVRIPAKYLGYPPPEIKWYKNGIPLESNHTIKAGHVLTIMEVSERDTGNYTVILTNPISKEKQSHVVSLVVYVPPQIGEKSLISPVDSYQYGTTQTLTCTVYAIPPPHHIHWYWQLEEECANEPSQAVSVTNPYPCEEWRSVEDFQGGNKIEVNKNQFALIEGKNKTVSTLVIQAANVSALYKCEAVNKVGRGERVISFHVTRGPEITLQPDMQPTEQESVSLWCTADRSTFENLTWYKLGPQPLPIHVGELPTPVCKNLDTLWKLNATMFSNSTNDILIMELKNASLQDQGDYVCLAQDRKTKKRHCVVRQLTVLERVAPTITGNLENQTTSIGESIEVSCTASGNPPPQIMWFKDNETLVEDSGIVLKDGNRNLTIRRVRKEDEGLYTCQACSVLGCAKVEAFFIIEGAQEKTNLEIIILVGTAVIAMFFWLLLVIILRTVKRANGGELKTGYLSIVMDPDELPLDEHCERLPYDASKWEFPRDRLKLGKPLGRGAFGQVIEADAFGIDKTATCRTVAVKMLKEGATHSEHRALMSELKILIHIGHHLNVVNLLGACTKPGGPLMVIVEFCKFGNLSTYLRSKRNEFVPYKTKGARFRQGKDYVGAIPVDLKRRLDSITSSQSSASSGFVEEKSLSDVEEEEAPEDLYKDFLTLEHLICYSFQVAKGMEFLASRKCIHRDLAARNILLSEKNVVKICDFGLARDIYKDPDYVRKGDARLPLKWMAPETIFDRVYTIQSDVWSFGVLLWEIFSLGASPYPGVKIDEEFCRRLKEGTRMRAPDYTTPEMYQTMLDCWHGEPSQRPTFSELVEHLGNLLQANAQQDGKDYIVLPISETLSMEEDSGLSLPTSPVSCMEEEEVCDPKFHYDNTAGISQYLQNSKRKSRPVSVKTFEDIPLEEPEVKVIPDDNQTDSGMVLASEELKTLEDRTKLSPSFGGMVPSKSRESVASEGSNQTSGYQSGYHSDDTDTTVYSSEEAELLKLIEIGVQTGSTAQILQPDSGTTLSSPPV
RAF proto-oncogene serine/threonine-protein kinase (Homo sapiens), sequence (P04049 whole entry): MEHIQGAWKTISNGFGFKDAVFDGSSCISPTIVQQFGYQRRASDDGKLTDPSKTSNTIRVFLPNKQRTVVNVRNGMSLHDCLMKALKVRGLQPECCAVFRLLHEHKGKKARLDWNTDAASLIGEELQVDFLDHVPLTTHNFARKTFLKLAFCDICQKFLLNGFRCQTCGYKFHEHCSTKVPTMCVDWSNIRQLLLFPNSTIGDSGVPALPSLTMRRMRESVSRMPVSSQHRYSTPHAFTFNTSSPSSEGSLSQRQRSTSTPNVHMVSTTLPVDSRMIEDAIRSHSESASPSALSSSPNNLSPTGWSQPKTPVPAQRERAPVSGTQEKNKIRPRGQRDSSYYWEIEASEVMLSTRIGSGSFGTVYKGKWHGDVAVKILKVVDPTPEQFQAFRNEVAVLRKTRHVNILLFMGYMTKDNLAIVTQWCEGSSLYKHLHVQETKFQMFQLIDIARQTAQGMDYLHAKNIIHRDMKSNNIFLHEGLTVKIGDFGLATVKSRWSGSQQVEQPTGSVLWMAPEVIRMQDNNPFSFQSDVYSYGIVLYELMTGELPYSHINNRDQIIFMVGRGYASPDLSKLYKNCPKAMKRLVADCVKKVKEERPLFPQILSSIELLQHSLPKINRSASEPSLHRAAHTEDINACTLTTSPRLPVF

## O=c1c2ccccc2sn1-c1ccccc1
[1]
  IC50: 92 nM
[2]
  IC50: 263 nM
[3]
  selectivity ratio: 262
[4]
  selectivity ratio: 60.8
[5]
  selectivity ratio: 174
[6]
  IC50: 61 nM

## O=C1c2ccccc2C(=O)N1Nc1nc(-c2ccc3ccccc3c2)cs1
[7]
  selectivity ratio: 24
Leishmania infantum [8]
  IC50: 5200 nM
[9]
  selectivity ratio: 17.7
Leishmania infantum [10]
  IC50: 9800 nM

## CCCC(=O)Nc1ncc([N+](=O)[O-])s1
Trypanosoma brucei [11]
  IC50: 640 nM
[12]
  selectivity ratio: > 15
[13]
  selectivity ratio: > 156
Trypanosoma brucei [14]
  IC50: 6470 nM

## O=C1c2ccccc2C(=O)N1Nc1nc(-c2ccc(Cl)cc2Cl)cs1
[7]
  selectivity ratio: 12
Leishmania infantum [8]
  IC50: 22300 nM
[9]
  selectivity ratio: 12.7
Leishmania infantum [10]
  IC50: 13900 nM

## CC(C)c1ccc(/C=N/NC(N)=S)cc1
[15]
  inhibition: 70%

## CCOC(=O)c1ccc(-n2sc3ccccc3c2=O)cc1
[1]
  IC50: 937 nM
[5]
  selectivity ratio: > 267

## CCCCC(=O)Nc1ncc([N+](=O)[O-])s1
Trypanosoma brucei [11]
  IC50: 570 nM
[12]
  selectivity ratio: > 23
[13]
  selectivity ratio: > 175
Trypanosoma brucei [14]
  IC50: 4320 nM

## COc1cc2c(Oc3ccc(/C=N/NC(=O)Nc4ccccc4F)cc3F)ccnc2cc1OCCCN1CCCCC1
MDA-MB-231
  IC50: 770 nM
A549
  IC50: 9 nM
MKN-45
  IC50: 16 nM
HT-29
  IC50: 59 nM

## S=C(NN=C(c1ccccc1)c1ccccc1)Nc1ccccc1
[16]
  selectivity ratio: 43.2
[17]
  IC50: 8480 nM

## Nc1ccccc1/C(=N\NC(=S)Nc1ccccc1)c1ccccc1
[16]
  selectivity ratio: 15
[17]
  IC50: 2830 nM

## CC(=O)Nc1ncc([N+](=O)[O-])s1 [NITHIAMIDE]
Trypanosoma brucei [11]
  IC50: 580 nM
[12]
  selectivity ratio: > 21
[13]
  selectivity ratio: 149
Trypanosoma brucei [14]
  IC50: 4670 nM

## O=C(N/N=C/c1c(Cl)cccc1Cl)Nc1ccc(Oc2ccnc(-n3cnnn3)c2)c(F)c1
[18]
  inhibition: 70.7%
[19]
  inhibition: 14%
NCI-H460
  IC50: 360 nM
MKN-45
  IC50: 970 nM
WI-38
  IC50: 3960 nM
HT-29
  IC50: 80 nM
[20]
  inhibition: 14%
[21]
  inhibition: 14%

## C=CCn1c(C(=O)N2CCN(C/C=C/c3ccccc3)CC2)cs\c1=N/N=C/C=C/c1ccco1
Trypanosoma cruzi [22]
  IC50: 3100 nM
Trypanosoma cruzi [23]
  EC50: 700 nM
